Counter-ions that a name gives are not always drawn. Like-named read-outs stand apart in the source and are kept apart here.
How the values were obtained:
[1] = molecular target: Kif5b-RET fusion protein in HEK-293 cells (Homo sapiens, UniProt P07949); experiment: cell-based
[2] = molecular target: human KDR protein in HEK-293 cells (Homo sapiens (Human), UniProt P35968); experiment: KDR Cell Assay (phospho-KDR in HEK-293 cells expressing inducible KDR); format: cell-based; details: pKDR Cell HEK 10% FBS IC50, HEK-293 cells expressing inducible KDR, VEGF stimulated
Outline: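 HEK-293 cells with inducible human KDR were treated with compound for 1 h in DMEM (0.25% DMSO final), then lysed. Phospho-KDR was quantified by Meso Scale immunoassay, expressed as percent of control, and IC50 taken where a 4-parameter logistic fit crossed 50 POC.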

[3] = molecular target: N-terminal GST tagged recombinant human RET cytoplasmic domain (aa 658-end), wild type RET kinase (Homo sapiens (Human), UniProt P07949); experiment: RET Enzyme Assay (HTRF KinEASE-TK), wild type RET; format: biochemical
[4] = HEK-293 cells expressing Kif5b-RET, read-out: KIF5B-RET pTYR1062 Cell IC50
[5] = HEK-293 cells expressing Kif5b-RET, phospho-RET(Tyr1062), read-out: KIF5B-RET pTYR1062 Cell IC50

Chain of human KDR protein in HEK-293 cells (P35968 20-1356): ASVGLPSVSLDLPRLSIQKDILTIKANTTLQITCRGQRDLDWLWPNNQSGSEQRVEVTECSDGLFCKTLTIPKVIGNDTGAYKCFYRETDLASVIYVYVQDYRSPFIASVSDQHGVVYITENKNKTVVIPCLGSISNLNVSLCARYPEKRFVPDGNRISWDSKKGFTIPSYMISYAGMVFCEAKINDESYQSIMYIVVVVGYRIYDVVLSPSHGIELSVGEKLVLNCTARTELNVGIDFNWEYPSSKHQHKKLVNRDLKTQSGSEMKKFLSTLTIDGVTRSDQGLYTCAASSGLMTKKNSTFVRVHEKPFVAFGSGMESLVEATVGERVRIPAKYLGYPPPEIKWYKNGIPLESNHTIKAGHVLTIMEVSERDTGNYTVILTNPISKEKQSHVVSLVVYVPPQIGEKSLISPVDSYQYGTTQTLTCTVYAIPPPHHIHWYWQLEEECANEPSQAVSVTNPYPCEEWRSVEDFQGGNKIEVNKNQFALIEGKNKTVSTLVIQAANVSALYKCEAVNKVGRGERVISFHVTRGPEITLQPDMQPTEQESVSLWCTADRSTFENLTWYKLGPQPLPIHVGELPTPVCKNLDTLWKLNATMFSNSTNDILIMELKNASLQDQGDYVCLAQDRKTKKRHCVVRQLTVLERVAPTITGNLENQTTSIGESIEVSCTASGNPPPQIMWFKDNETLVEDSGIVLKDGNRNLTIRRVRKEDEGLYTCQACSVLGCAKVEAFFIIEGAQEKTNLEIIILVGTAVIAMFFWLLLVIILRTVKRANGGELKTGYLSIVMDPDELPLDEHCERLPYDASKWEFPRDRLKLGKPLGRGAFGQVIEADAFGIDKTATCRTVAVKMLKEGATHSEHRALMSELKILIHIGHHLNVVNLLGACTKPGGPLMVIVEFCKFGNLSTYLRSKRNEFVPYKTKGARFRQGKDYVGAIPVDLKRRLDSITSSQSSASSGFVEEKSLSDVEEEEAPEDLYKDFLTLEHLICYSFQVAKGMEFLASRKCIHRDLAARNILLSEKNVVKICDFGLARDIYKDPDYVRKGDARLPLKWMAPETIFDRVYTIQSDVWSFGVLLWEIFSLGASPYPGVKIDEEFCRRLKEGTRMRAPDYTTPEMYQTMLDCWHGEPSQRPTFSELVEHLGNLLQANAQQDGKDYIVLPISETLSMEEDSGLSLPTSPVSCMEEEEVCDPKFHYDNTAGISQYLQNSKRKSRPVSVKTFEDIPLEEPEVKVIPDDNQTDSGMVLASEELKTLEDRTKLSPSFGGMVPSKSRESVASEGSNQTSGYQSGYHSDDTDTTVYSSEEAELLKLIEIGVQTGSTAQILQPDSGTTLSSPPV
Chain of N-terminal GST tagged recombinant human RET cytoplasmic domain (aa 658-end), wild type RET kinase (P07949 658-1114): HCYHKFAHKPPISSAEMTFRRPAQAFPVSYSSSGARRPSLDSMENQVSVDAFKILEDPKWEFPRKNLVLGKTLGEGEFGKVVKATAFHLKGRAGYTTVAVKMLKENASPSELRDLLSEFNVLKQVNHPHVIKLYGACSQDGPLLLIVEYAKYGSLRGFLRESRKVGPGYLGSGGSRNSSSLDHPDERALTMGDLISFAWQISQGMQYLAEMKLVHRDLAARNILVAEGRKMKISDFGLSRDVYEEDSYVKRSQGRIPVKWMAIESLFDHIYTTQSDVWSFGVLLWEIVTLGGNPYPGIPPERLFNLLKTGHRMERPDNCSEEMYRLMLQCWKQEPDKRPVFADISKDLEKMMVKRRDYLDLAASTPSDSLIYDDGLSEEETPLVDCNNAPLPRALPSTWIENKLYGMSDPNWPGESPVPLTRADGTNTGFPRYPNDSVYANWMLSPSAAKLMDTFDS
Chain of Kif5b-RET fusion protein in HEK-293 cells (P07949 29-1114 limits assumed): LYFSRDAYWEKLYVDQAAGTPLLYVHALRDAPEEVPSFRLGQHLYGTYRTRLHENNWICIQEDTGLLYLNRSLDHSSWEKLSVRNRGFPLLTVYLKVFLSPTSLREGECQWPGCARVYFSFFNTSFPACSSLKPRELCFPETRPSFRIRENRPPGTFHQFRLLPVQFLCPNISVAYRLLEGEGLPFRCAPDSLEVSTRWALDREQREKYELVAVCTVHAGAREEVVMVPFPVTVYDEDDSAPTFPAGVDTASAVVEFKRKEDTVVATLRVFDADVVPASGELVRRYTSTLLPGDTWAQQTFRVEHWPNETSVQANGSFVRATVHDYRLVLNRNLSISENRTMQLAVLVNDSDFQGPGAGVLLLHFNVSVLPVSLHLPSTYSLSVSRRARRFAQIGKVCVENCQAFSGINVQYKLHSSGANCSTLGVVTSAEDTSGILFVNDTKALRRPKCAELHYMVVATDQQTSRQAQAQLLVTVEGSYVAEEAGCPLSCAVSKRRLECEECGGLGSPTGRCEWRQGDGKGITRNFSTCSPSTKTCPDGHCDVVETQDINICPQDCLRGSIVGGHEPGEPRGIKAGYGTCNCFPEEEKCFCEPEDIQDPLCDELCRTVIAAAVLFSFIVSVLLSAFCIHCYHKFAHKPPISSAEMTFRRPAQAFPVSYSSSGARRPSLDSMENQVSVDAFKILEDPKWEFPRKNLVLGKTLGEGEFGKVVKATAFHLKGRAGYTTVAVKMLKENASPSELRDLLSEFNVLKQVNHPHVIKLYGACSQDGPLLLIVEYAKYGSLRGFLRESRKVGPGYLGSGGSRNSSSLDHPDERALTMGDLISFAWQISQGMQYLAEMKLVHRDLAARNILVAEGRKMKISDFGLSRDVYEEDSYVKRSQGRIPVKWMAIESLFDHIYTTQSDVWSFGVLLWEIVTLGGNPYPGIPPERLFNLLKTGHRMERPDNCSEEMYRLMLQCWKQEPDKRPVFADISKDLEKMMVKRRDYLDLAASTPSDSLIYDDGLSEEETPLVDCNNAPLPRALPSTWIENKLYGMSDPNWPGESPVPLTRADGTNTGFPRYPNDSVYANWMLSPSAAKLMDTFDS

SMILES	IC50 [1, 4] [nM]	IC50 [2] [nM]	IC50 ([3]; wild type RET, 1 mM ATP) [nM]	IC50 [1, 5] [nM]	IC50 ([2]; 10% FBS) [nM]	IC50 [3] [nM]	IC50 [1] [nM]
CO[C@@H](C)CN1CCN(c2ccc(-c3cc(-c4cnn(C)c4)cn4ncc(C#N)c34)cn2)CC1 [Example 415, (S)-4-(6-(4-(2-methoxypropyl)piperazin-1-yl)pyridin-3-yl)-6-(1-methyl-1H-pyrazol-4-yl)pyrazolo[1,5-a]pyridine-3-carbonitrile]	25.4	2030	25.2				
CC(C)OC(=O)NC1CCN(c2ccc(-c3cc(-c4cnn(C)c4)cn4ncc(C#N)c34)cn2)CC1 [Example 188, Isopropyl (1-(5-(3-cyano-6-(1-methyl-1H-pyrazol-4-yl)pyrazolo[1,5-a]pyridin-4-yl)pyridin-2-yl)piperidin-4-yl)carbamate]			16.8	9.7	614		
CC(C)COC1CCN(c2ccc(-c3cc(-c4cnn(C)c4)cn4ncc(C#N)c34)cn2)CC1 [Example 197, 4-(6-(4-isobutoxypiperidin-1-yl)pyridin-3-yl)-6-(1-methyl-1H-pyrazol-4-yl)pyrazolo[1,5-a]pyridine-3-carbonitrile]			14	39.6	1300		
C[C@@H](O)CC(=O)N1CCN(c2ccc(-c3cc(-c4cnn(C)c4)cn4ncc(C#N)c34)cn2)CC1 [Example 55, (R)-4-(6-(4-(3-hydroxybutanoyl)piperazin-1-yl)pyridin-3-yl)-6-(1-methyl-1H-pyrazol-4-yl)pyrazolo[1,5-a]pyridine-3-carbonitrile]			10.4	54.9	923		
CC(C)C(=O)NC1CCN(c2ccc(-c3cc(-c4cnn(C)c4)cn4ncc(C#N)c34)cn2)CC1 [Example 185, N-(1-(5-(3-cyano-6-(1-methyl-1H-pyrazol-4-yl)pyrazolo[1,5-a]pyridin-4-yl)pyridin-2-yl)piperidin-4-yl)isobutyramide]			11.5	14.3	628		
CCC1(C(=O)NCC(C)(C)O)CCN(c2ccc(-c3cc(-c4cnn(C)c4)cn4ncc(C#N)c34)cn2)CC1 [Example 258, 1-(5-(3-cyano-6-(1-methyl-1H-pyrazol-4-yl)pyrazolo[1,5-a]pyridin-4-yl)pyridin-2-yl)-4-ethyl-N-(2-hydroxy-2-methylpropyl) piperidine-4-carboxamide]			12.5	10	505		
Cn1cc(-c2cc(-c3ccc(N4CCC(C)(N)CC4)nc3)c3c(C#N)cnn3c2)cn1 [Example 202, 4-(6-(4-amino-4-methylpiperidin-1-yl)pyridin-3-yl)-6-(1-methyl-1H-pyrazol-4-yl)pyrazolo[1,5-a]pyridine-3-carbonitrile dihydrochloride]				110	992	41.7	
Cn1cc(-c2cc(-c3ccc(N4CCC(S(C)(=O)=O)CC4)nc3)c3c(C#N)cnn3c2)cn1 [Example 567, 6-(1-methyl-1H-pyrazol-4-yl)-4-(6-(4-(methylsulfonyl)piperidin-1-yl)pyridin-3-yl)pyrazolo[1,5-a]pyridine-3-carbonitrile]		198	3.1				4.9
Cn1cc(-c2cc(-c3ccc(N4CCN(C(=O)CC(C)(C)O)CC4)nc3)c3c(C#N)cnn3c2)cn1 [Example 79, 4-(6-(4-(3-hydroxy-3-methylbutanoyl)piperazin-1-yl)pyridin-3-yl)-6-(1-methyl-1H-pyrazol-4-yl)pyrazolo[1,5-a]pyridine-3-carbonitrile]			14.5	31.3	1260		
COCCNC(=O)N1CCN(c2ccc(-c3cc(-c4cnn(C)c4)cn4ncc(C#N)c34)cn2)CC1 [Example 135, 4-(5-(3-cyano-6-(1-methyl-1H-pyrazol-4-yl)pyrazolo[1,5-a]pyridin-4-yl)pyridin-2-yl)-N-(2-methoxyethyl)piperazine-1-carboxamide]			12.8	35.4	1030		
CC(C)OCCNC(=O)C1CCN(c2ccc(-c3cc(-c4cnn(C)c4)cn4ncc(C#N)c34)cn2)CC1 [Example 234, 1-(5-(3-cyano-6-(1-methyl-1H-pyrazol-4-yl)pyrazolo[1,5-a]pyridin-4-yl)pyridin-2-yl)-N-(2-isopropoxyethyl) piperidine-4-carboxamide]			25.6	31.9	1210		
N#Cc1cnn2cc(-c3cnn(C(F)F)c3)cc(-c3ccc(N4CCN(Cc5ccccn5)CC4)nc3)c12 [Example 586, 6-(1-(difluoromethyl)-1H-pyrazol-4-yl)-4-(6-(4-(pyridine-2-ylmethyl)piperazin-1-yl)pyridin-3-yl)pyrazolo[1,5-a]pyridine-3-carbonitrile]	15.6	≥ 5000	5.2				
C[C@H](NC(=O)C1CCN(c2ccc(-c3cc(-c4cnn(C)c4)cn4ncc(C#N)c34)cn2)CC1)C(F)(F)F [Example 231, (S)-1-(5-(3-cyano-6-(1-methyl-1H-pyrazol-4-yl)pyrazolo[1,5-a]pyridin-4-yl)pyridin-2-yl)-N-(1,1,1-trifluoropropan-2-yl)piperidine-4-carboxamide]			6.9	5.6	279		
CC(C)n1cc(-c2cc(-c3ccc(N4CCN(Cc5ccccc5)CC4)nc3)c3c(C#N)cnn3c2)cn1 [Example 611, 4-(6-(4-benzylpiperazin-1-yl)pyridin-3-yl)-6-(1-isopropyl-1H-pyrazol-4-yl)pyrazolo[1,5-a]pyridine-3-carbonitrile]		298	11.9				2.5
CN(C)C(=O)CN1CCN(c2ccc(-c3cc(-c4cnn(C)c4)cn4ncc(C#N)c34)cn2)CC1 [Example 143, 2-(4-(5-(3-cyano-6-(1-methyl-1H-pyrazol-4-yl)pyrazolo[1,5-a]pyridin-4-yl)pyridin-2-yl)piperazin-1-yl)-N,N-dimethylacetamide 2,2,2-trifluoroacetate]				69.8	1800	34.1	

Continued by falling IC50 ([3]; wild type RET, 1 mM ATP), values first:

IC50 [1, 4] [nM]	IC50 [2] [nM]	IC50 ([3]; wild type RET, 1 mM ATP) [nM]	IC50 [1, 5] [nM]	IC50 ([2]; 10% FBS) [nM]	SMILES	IC50 [3] [nM]	IC50 [1] [nM]
5.2	431	38.2			CC(C)Cn1cc(-c2cc(-c3ccc(N4CCN(Cc5ccccc5)CC4)nc3)c3c(C#N)cnn3c2)cn1 [Example 612, 4-(6-(4-benzylpiperazin-1-yl)pyridin-3-yl)-6-(1-isobutyl-1H-pyrazol-4-yl)pyrazolo[1,5-a]pyridine-3-carbonitrile]		
		30.6	19.8	229	Cn1cc(-c2cc(-c3ccc(N4CCN(C(=O)CN(C(=O)OC(C)(C)C)C(C)(C)C)CC4)nc3)c3c(C#N)cnn3c2)cn1 [Example 18, tert-butyl tert-butyl(2-(4-(5-(3-cyano-6-(1-methyl-1H-pyrazol-4-yl)pyrazolo[1,5-a]pyridin-4-yl)pyridin-2-yl)piperazin-1-yl)-2-oxoethyl)carbamate]		
17.4	283	16.1			C[C@@H](CO)Cn1cc(-c2cc(-c3ccc(N4CCN(Cc5ccccc5)CC4)nc3)c3c(C#N)cnn3c2)cn1 [Example 592, (R)-4-(6-(4-benzylpiperazin-1-yl)pyridin-3-yl)-6-(1-(3-hydroxy-2-methylpropyl)-1H-pyrazol-4-yl)pyrazolo[1,5-a]pyridine-3-carbonitrile]		
		16	35.5	896	CC(C)C[C@H](O)C(=O)N1CCN(c2ccc(-c3cc(-c4cnn(C)c4)cn4ncc(C#N)c34)cn2)CC1 [Example 56, (S)-4-(6-(4-(2-hydroxy-4-methylpentanoyl)piperazin-1-yl)pyridin-3-yl)-6-(1-methyl-1H-pyrazol-4-yl)pyrazolo[1,5-a]pyridine-3-carbonitrile]		
		11.5	8.2	527	CCC(C)(O)CC(=O)N1CCN(c2ccc(-c3cc(-c4cnn(C)c4)cn4ncc(C#N)c34)cn2)CC1 (stereo not drawn) [Example 63, 4-(6-(4-(3-hydroxy-3-methylpentanoyl)piperazin-1-yl)pyridin-3-yl)-6-(1-methyl-1H-pyrazol-4-yl)pyrazolo[1,5-a]pyridine-3-carbonitrile]		
		9.2	12.3	446	COC(=O)C1(C)CCN(c2ccc(-c3cc(-c4cnn(C)c4)cn4ncc(C#N)c34)cn2)CC1 [Example 254, Methyl 1-(5-(3-cyano-6-(1-methyl-1H-pyrazol-4-yl)pyrazolo[1,5-a]pyridin-4-yl)pyridin-2-yl)-4-methylpiperidine-4-carboxylate]		
		7.8	5.6	495	CC(C)NC(=O)C1(C)CCN(c2ccc(-c3cc(-c4cnn(C)c4)cn4ncc(C#N)c34)cn2)CC1 [Example 251, 1-(5-(3-cyano-6-(1-methyl-1H-pyrazol-4-yl)pyrazolo[1,5-a]pyridin-4-yl)pyridin-2-yl)-N-isopropyl-4-methylpiperidine-4-carboxamide]		
		7.4	5.1	1510	COC(CNC(=O)C1CCN(c2ccc(-c3cc(-c4cnn(C)c4)cn4ncc(C#N)c34)cn2)CC1)C(F)(F)F (stereo not drawn) [Example 235, 1-(5-(3-cyano-6-(1-methyl-1H-pyrazol-4-yl)pyrazolo[1,5-a]pyridin-4-yl)pyridin-2-yl)-N-(3,3,3-trifluoro-2-methoxypropyl) piperidine-4-carboxamide]		
		5.5	5.5	148	Cn1cc(-c2cc(-c3ccc(N4CCN(C(=O)[C@H](O)C(F)(F)F)CC4)nc3)c3c(C#N)cnn3c2)cn1 [Example 61, (S)-6-(1-methyl-1H-pyrazol-4-yl)-4-(6-(4-(3,3,3-trifluoro-2-hydroxypropanoyl)piperazin-1-yl)pyridin-3-yl)pyrazolo[1,5-a]pyridine-3-carbonitrile]		
